# Tests used:
# [1] = system: human NSCLC NCI-H3122 cells xenograft; assay: Mouse Xenograft Model, monotherapy (NCI-H3122); type: in vivo; conditions: Female Harlan Nude mice, 50 mg/kg once daily peroral for 17 days, monotherapy (FIG. 2)
# Experimental: Female Harlan Nude mice were transplanted s.c. with human NSCLC NCI-H3122 cells to determine the in-vivo anti-tumour activity of GLS inhibitors. 5×10^6 cells in 50% matrigel (BD Bioscience) were injected s.c. on the left flank of the animals. Animals were randomised into groups of 10-15 when tumours reached a volume of ˜200-300 mm^3 and treatment commenced. […] Tumours were measured twice weekly by calliper and volume of tumours calculated using elliptical formula (π/6×width×width×length). Statistical significance was evaluated using a one tailed, t-test. Example 2 was formulated in a 1% Polysorbate 80 and pH adjusted with 1M HCL to a final pH concentration of pH3.5. Data is presented as mean tumour volume with calculated mean standard error bars.
# [2] = system: human NSCLC NCI-H1703 cells xenograft; assay: Mouse Xenograft Model, combination therapy study (NCI-H1703); type: in vivo; conditions: Male Scid mice
# Experimental: Male Scid mice were transplanted s.c. with human NSCLC NCI-H1703 cells (ATCC-CRL-5889) to determine the in-vivo anti-tumour activity of GLS inhibitors. 1×10^7 cells in 50% matrigel (BD Bioscience) were injected s.c. on the left flank of the animals.
# Animals were randomised into groups of 10-12 when tumours reached a volume of ˜200-300 mm^3 and treatment commenced. […] Tumours were measured twice weekly by calliper and volume of tumours calculated using elliptical formula (π/6×width×width×length). Statistical significance was evaluated using a one tailed, t-test. Taxotere® (Sanofi) was formulated in a physiological saline. Example 2 was formulated in a 1% Polysorbate 80 and pH adjusted with 1M HCL to a final pH concentration of pH3.5. Data is presented as mean tumour volume with calculated mean standard error bars.
smiles,measurement,setting,value
"CO[C@H](C(=O)Nc1nnc(N[C@@H]2CCN(c3cccnn3)C2)s1)c1ccccc1 [Example 2(a), (2S)-2-Methoxy-2-phenyl-N-[5-[[(3R)-1-pyridazin-3-ylpyrrolidin-3-yl]amino]-1,3,4-thiadiazol-2-yl]acetamide]","Tumour growth (mean tumour volume), NCI-H3122 xenograft",[1],inhibition of growth in-vivo
same,"Tumour growth (mean tumour volume), NCI-H1703 xenograft, combination with Taxotere",[2]; 100 mg/kg once daily peroral for 16 days in combination with once weekly intra-venous Taxotere (FIG. 3),slight regression compared to Taxotere® monotherapy treatment
same,"Tumour growth (mean tumour volume), NCI-H1703 xenograft, monotherapy","[2]; 100 mg/kg once daily peroral for 16 days, monotherapy (FIG. 3)",inhibition of growth in-vivo

# Reference: patent US10294221B2, “1, 3, 4-thiadiazole compounds and their use in treating cancer” (AstraZeneca AB, priority 2014, dated 2019)
